Key:
Type in all cases: in vivo
[1] = test system: Alopecurus myosuroides (ALOMY); assay: Example A pre-emergence herbicidal glasshouse test; conditions: 312 h, Rate 250 g/ha, evaluated after 13 days, 100=total damage to plant, 0=no damage to plant
How it was run: (§1)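 Damage rated 13 days after treatment on a 0 (no damage) to 100 (total damage) scale. Spray of acetone/water (50:50) with 0.5% Tween 20 went onto soil-sown pots at day 1 (pre-emergence) or day 8 (post-emergence); glasshouse kept at 24/16 °C, 14 h light, 65% humidity.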

[2] = test system: Amaranthus retroflexus (AMARE); assay: Example A pre-emergence herbicidal glasshouse test; conditions: 312 h, Rate 250 g/ha, evaluated after 13 days, 100=total damage to plant, 0=no damage to plant
How it was run: as §1

Avena fatua (AVEFA) [3] = assay: Example A pre-emergence herbicidal glasshouse test; conditions: 312 h, Rate 250 g/ha, evaluated after 13 days, 100=total damage to plant, 0=no damage to plant
How it was run: as §1

[4] = test system: Echinochloa crus-galli (ECHCG); assay: Example A pre-emergence herbicidal glasshouse test; conditions: 312 h, Rate 250 g/ha, evaluated after 13 days, 100=total damage to plant, 0=no damage to plant
How it was run: as §1

Setaria faberi (SETFA) [5] = assay: Example A pre-emergence herbicidal glasshouse test; conditions: 312 h, Rate 250 g/ha, evaluated after 13 days, 100=total damage to plant, 0=no damage to plant
How it was run: as §1

Solanum nigrum (SOLNI) [6] = assay: Example A pre-emergence herbicidal glasshouse test; conditions: Rate 250 g/ha, evaluated after 13 days, 100=total damage to plant, 0=no damage to plant
How it was run: as §1

[7] = test system: Alopecurus myosuroides (ALOMY); assay: Example A post-emergence herbicidal glasshouse test; conditions: 312 h, evaluated after 13 days, 100=total damage to plant, 0=no damage
How it was run: as §1

[8] = test system: Amaranthus retroflexus (AMARE); assay: as above; conditions: 312 h, evaluated after 13 days, 100=total damage to plant, 0=no damage
How it was run: as §1

Avena fatua (AVEFA) [9] = assay: as above; conditions: 312 h, evaluated after 13 days, 100=total damage to plant, 0=no damage
How it was run: as §1

[10] = test system: Echinochloa crus-galli (ECHCG); assay: as above; conditions: 312 h, evaluated after 13 days, 100=total damage to plant, 0=no damage
How it was run: as §1

Setaria faberi (SETFA) [11] = assay: as above; conditions: 312 h, evaluated after 13 days, 100=total damage to plant, 0=no damage
How it was run: as §1

Solanum nigrum (SOLNI) [12] = assay: as above; conditions: 250 g/ha, evaluated after 13 days, 100=total damage to plant, 0=no damage
How it was run: as §1

[13] = test system: Alopecurus myosuroides (ALOMY); assay: Example B pre-emergence herbicidal greenhouse test; conditions: 480 h, evaluated after 20 days, 100=total damage to plant, 0=no damage
How it was run: (§2)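 Pots sown with test species were sprayed 1 day after sowing (pre-emergence) or at 10 days post-sowing (post-emergence) with the technical ingredient dissolved in acetone and diluted via emulsifier/solvent formulation. After 20 days (pre) or 15 days (post), effect was rated from 0 (no damage) to 100 (total damage).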

Avena fatua (AVEFA) [14] = assay: Example B pre-emergence herbicidal greenhouse test; conditions: 480 h, evaluated after 20 days, 100=total damage to plant, 0=no damage
How it was run: as §2

[15] = test system: Digitaria sanguinalis (DIGSA); assay: Example B pre-emergence herbicidal greenhouse test; conditions: 480 h, evaluated after 20 days, 100=total damage to plant, 0=no damage
How it was run: as §2

[16] = test system: Echinochloa crus-galli (ECHCG); assay: Example B pre-emergence herbicidal greenhouse test; conditions: 480 h, evaluated after 20 days, 100=total damage to plant, 0=no damage
How it was run: as §2

Lolium perenne (LOLPE) [17] = assay: Example B pre-emergence herbicidal greenhouse test; conditions: 480 h, evaluated after 20 days, 100=total damage to plant, 0=no damage
How it was run: as §2

Setaria faberi (SETFA) [18] = assay: Example B pre-emergence herbicidal greenhouse test; conditions: 480 h, evaluated after 20 days, 100=total damage to plant, 0=no damage
How it was run: as §2

[19] = test system: Alopecurus myosuroides (ALOMY); assay: Example B post-emergence herbicidal greenhouse test; conditions: 360 h, evaluated after 15 days, 100=total damage to plant, 0=no damage
How it was run: as §2

Avena fatua (AVEFA) [20] = assay: as above; conditions: 360 h, evaluated after 15 days, 100=total damage to plant, 0=no damage
How it was run: as §2

[21] = test system: Digitaria sanguinalis (DIGSA); assay: as above; conditions: 360 h, evaluated after 15 days, 100=total damage to plant, 0=no damage
How it was run: as §2

[22] = test system: Echinochloa crus-galli (ECHCG); assay: as above; conditions: 360 h, evaluated after 15 days, 100=total damage to plant, 0=no damage
How it was run: as §2

Lolium perenne (LOLPE) [23] = assay: as above; conditions: 360 h, evaluated after 15 days, 100=total damage to plant, 0=no damage
How it was run: as §2

Setaria faberi (SETFA) [24] = assay: as above; conditions: 360 h, evaluated after 15 days, 100=total damage to plant, 0=no damage
How it was run: as §2

| Structure (SMILES) | pest or weed control at 250 g/ha [1] | pest or weed control at 250 g/ha [2] | pest or weed control at 250 g/ha (Avena fatua (AVEFA) [3]) | pest or weed control at 250 g/ha [4] | pest or weed control at 250 g/ha (Setaria faberi (SETFA) [5]) | SOLNI damage to plant (Solanum nigrum (SOLNI) [6]) | pest or weed control at 250 g/ha [7] | pest or weed control at 250 g/ha [8] | pest or weed control at 250 g/ha (Avena fatua (AVEFA) [9]) | pest or weed control at 250 g/ha [10] | pest or weed control at 250 g/ha (Setaria faberi (SETFA) [11]) | SOLNI damage to plant (Solanum nigrum (SOLNI) [12]) | pest or weed control at 250 g/ha [13] | pest or weed control at 250 g/ha (Avena fatua (AVEFA) [14]) | pest or weed control at 250 g/ha [15] | pest or weed control at 250 g/ha [16] | pest or weed control at 250 g/ha (Lolium perenne (LOLPE) [17]) | pest or weed control at 250 g/ha (Setaria faberi (SETFA) [18]) | pest or weed control at 125 g/ha [19] | pest or weed control at 125 g/ha (Avena fatua (AVEFA) [20]) | further results |
| --- | --- | --- | --- | --- | --- | --- | --- | --- | --- | --- | --- | --- | --- | --- | --- | --- | --- | --- | --- | --- | --- |
| Cc1ccc(-c2ccc(Cl)cc2)cc1C1=C(O)[C@H]2CC[C@H](C2)C1=O [Compound T1, 3-(4′-chloro-4-methylbiphen-3-yl)bicyclo[3.2.1]octane-2,4-dione] | 50% | 0% | 40% | 90% | 90% | 0 | 80% | 50% | 90% | 100% | 100% | 20 | 80% | 30% | 50% | 100% | 100% | 100% | 50% | 30% | pest or weed control at 125 g/ha [21]: 90%; pest or weed control at 125 g/ha [22]: 90%; pest or weed control at 125 g/ha (Lolium perenne (LOLPE) [23]): 50%; pest or weed control at 125 g/ha (Setaria faberi (SETFA) [24]): 90% |
| CCc1ccc(-c2ccc(Cl)cc2)cc1C1=C(O)[C@H]2CC[C@H](C2)C1=O [Compound T4, 3-(4′-chloro-4-ethylbiphen-3-yl)bicyclo[3.2.1]octane-2,4-dione] | 50% | 0% | 50% | 100% | 90% | 0 | 90% | 0% | 100% | 100% | 100% | 0 | 100% | 80% | 100% | 100% | 100% | 100% | 80% | 100% | pest or weed control at 125 g/ha [21]: 100%; pest or weed control at 125 g/ha [22]: 100%; pest or weed control at 125 g/ha (Lolium perenne (LOLPE) [23]): 100%; pest or weed control at 125 g/ha (Setaria faberi (SETFA) [24]): 100% |
